Patent US10428017B2, “Modulators of the cystic fibrosis transmembrane conductance regulator protein and methods of use” (AbbVie S.à.r.l., priority 2017, dated 2019)
Read-outs that look alike come from different tables or passages of the source.

Target: T1, F508delCFTR (Homo sapiens, UniProt P13569, DEL508-508)
T1 construct: expressed in transfected cells; host or cells: CFBE4lo-F508delCFTR-HRP cells (human lung derived epithelial cell line, doxycycline-inducible)
Experiment: Cell Surface Expression-Horse Radish Peroxidase (CSE-HRP) Assay
Assay type: cell-based
Details: for EC50: CFBE4lo-F508delCFTR-HRP cells, 18-24 hours at 33° C.; for Maximum % activity (with co-corrector): with co-corrector 2 μM
Method in brief: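 CFBE4lo− cells expressing F508delCFTR with HRP in the fourth exofacial loop, induced 72 h with 0.5 μg/mL doxycycline, then treated 18-24 h at 33° C, alone or with 2 μM co-corrector (8 points, 3-fold, top 20 μM). Luminol luminescence after washing; % activity normalized to DMSO and 2 μM positive control; sigmoidal EC50 from triplicate plates.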

[1] = test compound without co-corrector, HRP luminescence readout, read-out: EC50 (without co-corrector)
[2] = test compound without co-corrector, maximum at any tested concentration (up to 20 μM), normalized to on-plate positive control (2 μM co-corrector)
[3] = with co-corrector 2 μM 3-[(2R,4R)-4-({[1-(2,2-difluoro-1,3-benzodioxol-5-yl)cyclopropyl]carbonyl}amino)-7-methoxy-3,4-dihydro-2H-chromen-2-yl]benzoic acid, read-out: EC50 (with co-corrector)
[4] = maximum at any tested concentration (up to 20 μM), normalized to on-plate positive control (2 μM co-corrector)

T1 sequence (P13569 with tags, fused parts or gaps DEL508-508): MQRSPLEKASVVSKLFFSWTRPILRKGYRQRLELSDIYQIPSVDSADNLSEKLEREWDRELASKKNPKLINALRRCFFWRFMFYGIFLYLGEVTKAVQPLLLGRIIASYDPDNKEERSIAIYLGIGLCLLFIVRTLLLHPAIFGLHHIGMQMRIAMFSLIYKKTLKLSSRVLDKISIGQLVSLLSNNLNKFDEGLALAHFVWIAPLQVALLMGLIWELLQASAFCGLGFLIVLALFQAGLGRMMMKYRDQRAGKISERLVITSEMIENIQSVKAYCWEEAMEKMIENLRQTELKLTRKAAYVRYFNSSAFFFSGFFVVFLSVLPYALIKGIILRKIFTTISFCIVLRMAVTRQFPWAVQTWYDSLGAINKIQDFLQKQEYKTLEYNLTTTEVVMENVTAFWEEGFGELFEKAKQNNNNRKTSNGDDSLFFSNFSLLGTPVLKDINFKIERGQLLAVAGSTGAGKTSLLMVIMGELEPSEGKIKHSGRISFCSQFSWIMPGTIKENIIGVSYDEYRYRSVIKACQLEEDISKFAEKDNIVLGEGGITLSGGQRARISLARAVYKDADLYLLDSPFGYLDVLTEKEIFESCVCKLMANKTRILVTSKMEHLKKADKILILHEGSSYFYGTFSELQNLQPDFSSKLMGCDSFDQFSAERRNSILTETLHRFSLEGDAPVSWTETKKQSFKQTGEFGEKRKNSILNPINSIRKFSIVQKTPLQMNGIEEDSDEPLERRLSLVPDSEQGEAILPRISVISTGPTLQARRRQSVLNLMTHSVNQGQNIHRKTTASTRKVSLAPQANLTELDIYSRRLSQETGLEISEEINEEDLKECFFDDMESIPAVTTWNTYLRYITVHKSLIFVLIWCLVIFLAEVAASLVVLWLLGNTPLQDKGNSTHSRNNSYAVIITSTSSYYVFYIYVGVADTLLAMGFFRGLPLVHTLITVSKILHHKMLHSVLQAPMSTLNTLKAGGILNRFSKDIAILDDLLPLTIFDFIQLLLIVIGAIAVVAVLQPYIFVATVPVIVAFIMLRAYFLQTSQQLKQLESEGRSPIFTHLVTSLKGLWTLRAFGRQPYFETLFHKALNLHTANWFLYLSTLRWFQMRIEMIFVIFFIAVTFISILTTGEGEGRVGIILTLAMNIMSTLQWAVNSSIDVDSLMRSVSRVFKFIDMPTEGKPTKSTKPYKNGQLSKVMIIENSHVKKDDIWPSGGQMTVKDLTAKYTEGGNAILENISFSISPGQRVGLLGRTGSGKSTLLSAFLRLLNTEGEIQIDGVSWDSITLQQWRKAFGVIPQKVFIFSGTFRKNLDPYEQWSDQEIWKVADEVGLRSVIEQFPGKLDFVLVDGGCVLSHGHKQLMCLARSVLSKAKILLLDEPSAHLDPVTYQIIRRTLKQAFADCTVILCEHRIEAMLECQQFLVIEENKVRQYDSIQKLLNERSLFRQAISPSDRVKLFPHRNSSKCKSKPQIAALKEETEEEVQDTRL

Molecule	EC50 [1] [µM]	Emax [2] [%]	EC50 [3] [µM]	Maximum % activity (with co-corrector) [4]	Maximum % activity (without co-corrector) [2]
COc1ccc(C2CCC2)c2c1C(C(=O)NS(=O)(=O)c1cccc3nc(C)ccc13)CCO2 (racemic) [Example 75, 8-cyclobutyl-5-methoxy-N-(2-methylquinoline-5-sulfonyl)-3,4-dihydro-2H-1-benzopyran-4-carboxamide]	3 to 10	≥ 150	< 3	+++ (≥350)	–
CCSC[C@H]1C[C@@](C(=O)NS(=O)(=O)c2cccc3ccccc23)(c2ccccc2)c2ccccc2O1 [Example 2, (2R,4R)-2-[(ethylsulfanyl)methyl]-N-(naphthalene-1-sulfonyl)-4-phenyl-3,4-dihydro-2H-1-benzopyran-4-carboxamide]	< 3	50 to 150	< 3	+++ (≥350)	–
COc1ccc2c(c1)C(C(=O)NS(=O)(=O)c1cccc3ccccc13)(c1ccccc1)CCO2 (stereo not shown) [Example 4, 6-methoxy-N-(naphthalene-1-sulfonyl)-4-phenyl-3,4-dihydro-2H-1-benzopyran-4-carboxamide]	< 3	50 to 150	< 3	+++ (≥350)	–
Cc1ccc2c(c1)C(C(=O)NS(=O)(=O)c1cccc3ccccc13)(c1ccccc1)CCO2 (stereo not shown) [Example 18, 6-methyl-N-(naphthalene-1-sulfonyl)-4-phenyl-3,4-dihydro-2H-1-benzopyran-4-carboxamide]	3 to 10	50 to 150	< 3	+++ (≥350)	–
4-methoxy-N-(naphthalene-1-sulfonyl)-5-(trifluoromethyl)-2,3-dihydro-1-benzofuran-3-carboxamide and 4-methoxy-N-(naphthalene-1-sulfonyl)-7-(trifluoromethyl)-2,3-dihydro-1-benzofuran-3-carboxamide [Example 40]	< 3	–	< 3	+++ (≥350)	+++ (≥150)
COc1ccc2c(c1)C(C(=O)NS(=O)(=O)c1cccc3ccccc13)(c1ccccc1)CC(C)(C)O2 (stereo not shown) [Example 3, 6-methoxy-2,2-dimethyl-N-(naphthalene-1-sulfonyl)-4-phenyl-3,4-dihydro-2H-1-benzopyran-4-carboxamide]	< 3	≥ 150	< 3	+++ (≥350)	–
Cc1cc2c(c(C)c1C(=O)c1ccccc1)C(C(=O)NS(=O)(=O)c1cccc3ccccc13)CCO2 (stereo not shown) [Example 5, 6-benzoyl-5,7-dimethyl-N-(naphthalene-1-sulfonyl)-3,4-dihydro-2H-1-benzopyran-4-carboxamide]	< 3	≥ 150	< 3	+++ (≥350)	–
COc1cccc2c1C(C(=O)NS(=O)(=O)c1cccc3ccccc13)CO2 (stereo not shown) [Example 20, 4-methoxy-N-(naphthalene-1-sulfonyl)-2,3-dihydro-1-benzofuran-3-carboxamide]	3 to 10	< 50	< 3	++ (≥150 and <350)	–
COc1ccc(C2CCC2)c2c1[C@@H](C(=O)NS(=O)(=O)c1cccc3ccccc13)CCO2 [Example 55, (4S)-8-cyclobutyl-5-methoxy-N-(naphthalene-1-sulfonyl)-3,4-dihydro-2H-1-benzopyran-4-carboxamide]	3 to 10	≥ 150	3 to 10	+++ (≥350)	–
COc1ccc(Cl)c2c1C(C(=O)NS(=O)(=O)c1cccc3ccccc13)CO2 (stereo not shown) [Example 63, 7-chloro-4-methoxy-N-(naphthalene-1-sulfonyl)-2,3-dihydro-1-benzofuran-3-carboxamide]	3 to 10	≥ 150	< 3	+++ (≥350)	–
COc1c(Br)cc(Br)c2c1C(C(=O)NS(=O)(=O)c1cccc3ccccc13)CCO2 (stereo not shown) [Example 12, 6,8-dibromo-5-methoxy-N-(naphthalene-1-sulfonyl)-3,4-dihydro-2H-1-benzopyran-4-carboxamide]	3 to 10	≥ 150	3 to 10	+++ (≥350)	–
COc1ccc(C2CCC2)c2c1[C@H](C(=O)NS(=O)(=O)c1cccc3c1NCCC3)CO2 [Example 99, (3S)-7-cyclobutyl-4-methoxy-N-(1,2,3,4-tetrahydroquinoline-8-sulfonyl)-2,3-dihydro-1-benzofuran-3-carboxamide]	< 3	≥ 150	< 3	+++ (≥350)	–
O=C(NS(=O)(=O)c1cccc2ccccc12)C1(c2ccccc2)CCOc2ccc(Br)cc21 (stereo not shown) [Example 1, 6-bromo-N-(naphthalene-1-sulfonyl)-4-phenyl-3,4-dihydro-2H-1-benzopyran-4-carboxamide]	< 3	≥ 150	< 3	+++ (≥350)	–
